Test results as given in US11299461B2 (priority 2018, dated 2022).

biological target: LF 263-C catalytic domain (anthrax lethal factor) (Bacillus anthracis, UniProt P15917); test: biochemical
Sequence (P15917 296-809 limits assumed): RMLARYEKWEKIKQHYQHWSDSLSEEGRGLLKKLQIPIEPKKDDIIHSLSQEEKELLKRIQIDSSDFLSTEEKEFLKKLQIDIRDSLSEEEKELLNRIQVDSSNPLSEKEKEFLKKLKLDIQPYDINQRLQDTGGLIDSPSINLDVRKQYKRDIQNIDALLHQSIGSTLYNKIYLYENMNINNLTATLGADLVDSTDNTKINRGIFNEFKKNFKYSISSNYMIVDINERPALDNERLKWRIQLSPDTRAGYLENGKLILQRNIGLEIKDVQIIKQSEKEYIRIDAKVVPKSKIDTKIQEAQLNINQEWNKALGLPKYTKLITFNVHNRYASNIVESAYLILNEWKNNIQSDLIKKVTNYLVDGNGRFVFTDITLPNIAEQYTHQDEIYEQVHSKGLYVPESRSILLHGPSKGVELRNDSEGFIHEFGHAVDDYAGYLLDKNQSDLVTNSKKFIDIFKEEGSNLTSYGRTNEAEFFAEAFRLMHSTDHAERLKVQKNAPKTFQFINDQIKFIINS

In order of rising Ki:
1. Cc1cc(C[C@H](CCCCN[C@H](C)c2ccc(Cl)cn2)C(=O)NO)cc(C)c1F [Compound 27, (S)-6-(((R)-1-(5-chloropyridin-2-yl)ethyl)amino)-2-(4-fluoro-3,5-dimethylbenzyl)-N-hydroxyhexanamide]  0.08 nM
2. CC[C@@H](NCCCC[C@@H](Cc1cc(C)c(F)c(C)c1)C(=O)NO)c1ccc(F)cn1 [Compound 28, (S)-2-(4-fluoro-3,5-dimethylbenzyl)-6-(((R)-1-(5-fluoropyridin-2-yl)propyl)amino)-N-hydroxyhexanamide]  0.08 nM
3. Cc1cc(C[C@H](CCCCN[C@@H](c2ccc(F)cn2)C(C)C)C(=O)NO)cc(Cl)c1F [Compound 30, (S)-2-(3-chloro-4-fluoro-5-methylbenzyl)-6-(((R)-1-(5-fluoropyridin-2-yl)-2-methylpropyl)amino)-N-hydroxyhexanamide]  0.25 nM
4. Cc1cc(C[C@H](CCCCN[C@@H](c2ccc(Cl)cn2)C(C)C)C(=O)NO)cc(Cl)c1F [Compound 31, (S)-2-(3-chloro-4-fluoro-5-methylbenzyl)-6-(((R)-1-(5-chloropyridin-2-yl)-2-methylpropyl)amino)-N-hydroxyhexanamide]  0.26 nM
5. CC(C)[C@@H](NCCCC[C@@H](Cc1cc(Cl)c(F)c(Cl)c1)C(=O)NO)c1ccc(Cl)cn1 [Compound 35, (S)-6-(((R)-1-(5-chloropyridin-2-yl)-2-methylpropyl)amino)-2-(3,5-dichloro-4-fluorobenzyl)-N-hydroxyhexanamide]  0.42 nM
6. CO[C@H](C[C@H](CCCCN[C@@H](c1ccc(Cl)cn1)C(C)C)C(=O)NO)c1ccc(F)cc1 [Compound 51, (S)-6-(((R)-1-(5-chloropyridin-2-yl)-2-methylpropyl)amino)-2-((R)-2-(4-fluorophenyl)-2-methoxyethyl)-N-hydroxyhexanamide]  0.54 nM
7. CC(C)[C@@H](NCCCC[C@@H](Cc1cc(Cl)c(F)c(Cl)c1)C(=O)NO)c1ccc(F)cn1 [Compound 34, (S)-2-(3,5-dichloro-4-fluorobenzyl)-6-(((R)-1-(5-fluoropyridin-2-yl)-2-methylpropyl)amino)-N-hydroxyhexanamide]  0.6 nM
8. CO[C@H](C[C@H](CCCCN[C@@H](c1ccc(F)cn1)C(C)C)C(=O)NO)c1ccc(F)cc1 [Compound 48, (S)-2-((R)-2-(4-fluorophenyl)-2-methoxyethyl)-6-(((R)-1-(5-fluoropyridin-2-yl)-2-methylpropyl)amino)-N-hydroxyhexanamide]  0.62 nM
9. Cc1cc(C[C@H](CCCCN[C@@H](c2ccc(F)cn2)C(C)C)C(=O)NO)cc(F)c1F [Compound 36, (S)-2-(3,4-difluoro-5-methylbenzyl)-6-(((R)-1-(5-fluoropyridin-2-yl)-2-methylpropyl)amino)-N-hydroxyhexanamide]  0.72 nM
10. CC[C@@H](NCCCC[C@@H](C[C@@H](OC)c1ccc(F)cc1)C(=O)NO)c1ccc(Cl)cn1 [Compound 56, (S)-6-(((R)-1-(5-chloropyridin-2-yl)propyl)amino)-2-((R)-2-(4-fluorophenyl)-2-methoxyethyl)-N-hydroxyhexanamide]  0.79 nM
11. Cc1cc(C[C@H](CCCCN[C@H](c2ccc(F)cn2)C(C)C)C(=O)NO)cc(C)c1F [Compound 26, (S)-2-(4-fluoro-3,5-dimethylbenzyl)-6-(((S)-1-(5-fluoropyridin-2-yl)-2-methylpropyl)amino)-N-hydroxyhexanamide]  0.87 nM
12. Cc1cc(C[C@H](CCCCN[C@@H](c2ccc(Cl)cn2)C(C)C)C(=O)NO)cc(F)c1F [Compound 37, (S)-6-(((R)-1-(5-chloropyridin-2-yl)-2-methylpropyl)amino)-2-(3,4-difluoro-5-methylbenzyl)-N-hydroxyhexanamide]  0.87 nM
13. Cc1cc(C[C@H](CCCCN(C)Cc2ccc(F)cn2)C(=O)NO)cc(Cl)c1F [Compound 29, (S)-2-(3-chloro-4-fluoro-5-methylbenzyl)-6-(((5-fluoropyridin-2-yl)methyl)(methyl)amino)-N-hydroxyhexanamide]  1.1 nM
14. COc1ccc(CN(C)CCCC[C@@H](Cc2cc(C)c(F)c(Cl)c2)C(=O)NO)nc1 [Compound 32, (S)-2-(3-chloro-4-fluoro-5-methylbenzyl)-N-hydroxy-6-(((5-methoxypyridin-2-yl)methyl)(methyl)amino)hexanamide]  1.5 nM
15. CN(CCCC[C@@H](Cc1cc(Cl)c(F)c(Cl)c1)C(=O)NO)Cc1ccc(F)cn1 [Compound 33, (S)-2-(3,5-dichloro-4-fluorobenzyl)-6-(((5-fluoropyridin-2-yl)methyl)(methyl)amino)-N-hydroxyhexanamide]  1.6 nM
16. CO[C@H](C[C@H](CCCCN[C@H](C)c1ccc(Cl)cn1)C(=O)NO)c1ccc(F)cc1 [Compound 55, (S)-6-(((R)-1-(5-chloropyridin-2-yl)ethyl)amino)-2-((R)-2-(4-fluorophenyl)-2-methoxyethyl)-N-hydroxyhexanamide]  1.6 nM
17. CO[C@H](C[C@H](CCCCN[C@H](CO)c1ccc(F)cn1)C(=O)NO)c1ccc(F)cc1 [Compound 39, (S)-2-((R)-2-(4-fluorophenyl)-2-methoxyethyl)-6-(((S)-1-(5-fluoropyridin-2-yl)-2-hydroxyethyl)amino)-N-hydroxyhexanamide]  1.7 nM
18. CO[C@H](C[C@H](CCCCN[C@@H](c1ncc(F)cc1F)C(C)C)C(=O)NO)c1ccc(F)cc1 [Compound 52, (S)-6-(((R)-1-(3,5-difluoropyridin-2-yl)-2-methylpropyl)amino)-2-((R)-2-(4-fluorophenyl)-2-methoxyethyl)-N-hydroxyhexanamide]  2.1 nM
19. CO[C@H](C[C@H](CCCCNCc1ccc(Cl)cn1)C(=O)NO)c1ccc(F)cc1 [Compound 41, (S)-6-(((5-chloropyridin-2-yl)methyl)amino)-2-((R)-2-(4-fluorophenyl)-2-methoxyethyl)-N-hydroxyhexanamide]  2.2 nM
20. CO[C@H](C[C@H](CCCCN[C@@H](c1ccc(Cl)cn1)C(C)C)C(=O)NO)c1ccc(F)c(C)c1 [Compound 58, (S)-6-(((R)-1-(5-chloropyridin-2-yl)-2-methylpropyl)amino)-2-((R)-2-(4-fluoro-3-methylphenyl)-2-methoxyethyl)-N-hydroxyhexanamide]  2.3 nM
21. CC[C@@H](NCCCC[C@@H](C[C@@H](OC)c1ccc(F)cc1)C(=O)NO)c1ncc(Cl)cc1Cl [Compound 54, (S)-6-(((R)-1-(3,5-dichloropyridin-2-yl)propyl)amino)-2-((R)-2-(4-fluorophenyl)-2-methoxyethyl)-N-hydroxyhexanamide]  2.4 nM
22. COc1ccc([C@H](NCCCC[C@@H](C[C@@H](OC)c2ccc(F)cc2)C(=O)NO)C(C)C)nc1 [Compound 49, (S)-2-((R)-2-(4-fluorophenyl)-2-methoxyethyl)-N-hydroxy-6-(((R)-1-(5-methoxypyridin-2-yl)-2-methylpropyl)amino)hexanamide]  2.7 nM
23. CO[C@H](C[C@H](CCCCN[C@@H](c1ccc(F)c(C)n1)C(C)C)C(=O)NO)c1ccc(F)cc1 [Compound 50, (S)-6-(((R)-1-(5-fluoro-6-methylpyridin-2-yl)-2-methylpropyl)amino)-2-((R)-2-(4-fluorophenyl)-2-methoxyethyl)-N-hydroxyhexanamide]  2.7 nM
24. CCN(CCCC[C@@H](C[C@@H](OC)c1ccc(F)c(C)c1)C(=O)NO)Cc1ccc(Cl)cn1 [Compound 57, (S)-6-(((5-chloropyridin-2-yl)methyl)(ethyl)amino)-2-((R)-2-(4-fluoro-3-methylphenyl)-2-methoxyethyl)-N-hydroxyhexanamide]  2.8 nM
25. CO[C@H](C[C@H](CCCCN(C)Cc1ccc(Cl)cn1)C(=O)NO)c1ccc(F)cc1 [Compound 42, (S)-6-(((5-chloropyridin-2-yl)methyl)(methyl)amino)-2-((R)-2-(4-fluorophenyl)-2-methoxyethyl)-N-hydroxyhexanamide]  3 nM
26. CCN(CCCC[C@@H](C[C@@H](OC)c1ccc(F)cc1)C(=O)NO)Cc1ccc(Cl)cn1 [Compound 40, (S)-6-(((5-chloropyridin-2-yl)methyl)(ethyl)amino)-2-((R)-2-(4-fluorophenyl)-2-methoxyethyl)-N-hydroxyhexanamide]  4.5 nM
27. COc1ccc(CN(C)CCCC[C@@H](Cc2cc(C)c(F)c(F)c2)C(=O)NO)nc1 [Compound 38, (S)-2-(3,4-difluoro-5-methylbenzyl)-N-hydroxy-6-(((5-methoxypyridin-2-yl)methyl)(methyl)amino)hexanamide]  4.9 nM
28. CO[C@H](C[C@H](CCCCN[C@@H](c1ncc(Cl)cc1Cl)C(C)C)C(=O)NO)c1ccc(F)cc1 [Compound 53, (S)-6-(((R)-1-(3,5-dichloropyridin-2-yl)-2-methylpropyl)amino)-2-((R)-2-(4-fluorophenyl)-2-methoxyethyl)-N-hydroxyhexanamide]  6.2 nM
29. CCc1cc(Cl)cnc1CN(C)CCCC[C@@H](C[C@@H](OC)c1ccc(F)cc1)C(=O)NO [Compound 44, (S)-6-(((5-chloro-3-ethylpyridin-2-yl)methyl)(methyl)amino)-2-((R)-2-(4-fluorophenyl)-2-methoxyethyl)-N-hydroxyhexanamide]  6.7 nM
30. CO[C@H](C[C@H](CCCCN(C)Cc1ccc(Br)cn1)C(=O)NO)c1ccc(F)cc1 [Compound 43, (S)-6-(((5-bromopyridin-2-yl)methyl)(methyl)amino)-2-((R)-2-(4-fluorophenyl)-2-methoxyethyl)-N-hydroxyhexanamide]  12.5 nM
31. CO[C@H](C[C@H](CCCCN(C)Cc1cc(C)ccn1)C(=O)NO)c1ccc(F)cc1 [Compound 46, (S)-2-((R)-2-(4-fluorophenyl)-2-methoxyethyl)-N-hydroxy-6-(methyl((4-methylpyridin-2-yl)methyl)amino)hexanamide]  14 nM
32. CO[C@H](C[C@H](CCCCN(C)Cc1cccc(C)n1)C(=O)NO)c1ccc(F)cc1 [Compound 45, (S)-2-((R)-2-(4-fluorophenyl)-2-methoxyethyl)-N-hydroxy-6-(methyl((6-methylpyridin-2-yl)methyl)amino)hexanamide]  15.8 nM
33. CO[C@H](C[C@H](CCCCN(CCO)Cc1ncc(F)cc1Cl)C(=O)NO)c1ccc(F)cc1 [Compound 47, (S)-6-(((3-chloro-5-fluoropyridin-2-yl)methyl)(2-hydroxyethyl)amino)-2-((R)-2-(4-fluorophenyl)-2-methoxyethyl)-N-hydroxyhexanamide]  53.5 nM
